Experimental data taken from patent US20080194470A1, “Nim811 In Cerebral Ischemia and Brain and Spinal Cord Injury” (Novartis AG, priority 2004, published 2008).

System: isolated rodent brain-derived mitochondria
Conditions: under energized and de-energized conditions; comparable to the effects of cyclosporine A
From the text: Spinal cord injury model (in vivo) • Adult Lewis rats are injured microsurgically by transecting the dorsal half of the spinal cord bilaterally at the level of the eighth thoracic vertebra. Laminectomy, anesthesia and surgery are described in Schnell and Schwab, Eur J Neurosci, Vol. 5, pp. 1156-1171 (1993). […] Tamura et al., J Cereb Blood Flow Metabol, Vol. 1, pp. 53-60 (1981); and Sauter and Rudin, Stroke, Vol. 17, pp. 1228-1234 (1986)]. • 3. Inhibition of mitochondrial permeability transition in isolated rodent brain-derived mitochondria and prevention of cell death in an in vitro model of ischemic brain damage, e.g. as described in Rytter et al., JCBF, Vol. 23, pp. 23-33.

## [Melle]^4-Ciclosporin
  inhibition of calcium-induced mitochondrial swelling: inhibitors of calcium-induced mitochondrial swelling

## [γ-hydroxy-MeLeu]^4-Ciclosporin
  inhibition of calcium-induced mitochondrial swelling: inhibitors of calcium-induced mitochondrial swelling
